Reference: patent US20040024293A1, “Methods and systems for analyzing complex biological systems” (priority 2001, published 2004)
“Also recorded” adds a separate entry of the source.

Assays:
Arabidopsis plants = details: nitrate addition to N-starved Arabidopsis plants; cited from earlier work
[1] = tested on: Saccharomyces cerevisiae wild type strain BY4743; assay: Combined gene expression and metabolite data mapped to KEGG reactions and pathways (AF1); assay type: cell-based; details: yeast
Text: In AF1, two different technologies were utilized: gene expression analysis (for examination of mRNA expression) and metabolite analysis. […] As noted previously, existing metabolic databases may be helpful in practicing the methods and systems of the present invention, but many databases include limitations that make their use in data analysis and pathway mapping less than straightforward. […] This caveat to KEGG makes it difficult to pinpoint the correct pathway when attempting to link a gene to a specific pathway. […] The pathway score indicates how meaningful the mapping is, or how likely it is to be correctly indicative of the pathway involved in the perturbation under examination. The method provides a pathway score based on perturbation levels of genes. and/or compounds and the information content of each gene and/or compound in the pathway, i.e., a pathway score indicates the extent to which other pathways are mapped to a gene/compound. For example, imagine that two genes are perturbed in a particular experiment. One gene maps to only one pathway, giving a high degree of probability that the perturbed pathway is the one identified in the mapping. The second gene maps to three pathways. In the later example, there is only one-third the probability that the pathway identified in the mapping is the one perturbed. The present invention provides a method for calculating the pathway scores, so that more weight is given to a score of a gene or compound that maps to only one pathway than to a score of a gene or compound that maps to multiple pathways. […] Where n=the total number of genes in the pathway; ipath—count=the number of pathways containing a gene; and j=the number of genes in the pathway that are perturbed. Another factor to be considered when weighting a pathway score is the degree of perturbation. Degree of perturbation can be calculated, for example, based on a number of standard deviations from a norm, and included in an equation such as the one shown above, so that not only the number of pathways is taken into account, but also accounts for the amount of gene transcript or compound present as compared to a control. Compounds were also linked to pathways using the KEGG database. KEGG links 676 compounds measured in AF1 to a total of 92 pathways. Of the 676 compounds under consideration, 77 were detected in the AF1 samples. […] The multiple mapping feature of KEGG makes it difficult to pinpoint the correct pathway when trying to link a compound to a specific pathway. […] A pathway score calculation is applied to the compounds to account for both information content (number of pathways a compound maps to) and perturbation level. […]

Arabidopsis thaliana [2] = assay: Biochemical (metabolite) profiling by LC-MS and GC-MS of sprayed Arabidopsis (MOA1); assay type: in vivo
Magnaporthe grisea = assay type: cell-based
[3] = tested on: Arabidopsis thaliana plants; assay: Phenotypic analysis of herbicide-treated Arabidopsis plants (SOA1); assay type: in vivo; details: for leafCurling (Dev.) / leafTwisting (Dev.) / leafWidth (Dev.) / matureLeafAnthocyanins (Dev.) / matureLeafChlorosis (Dev.) / matureLeafNecrosis (Dev.) / newLeafAnthocyanins (Dev.) / newLeafChlorosis (Dev.) / newLeafNecrosis (Dev.) / pointedLeaves (Dev.) / tMic (Dev.): SOA1, numeric value standardized to mock treated; for Symptom Class: three-week-old Arabidopsis plants treated with herbicide, phenotypes of FIG. 12
Arabidopsis thaliana [4] = assay: Gene expression profiling (22,000 gene array) of sprayed Arabidopsis (MOA1); assay type: in vivo; details: for No. of Lethal Genes Altered / gene expression perturbations compared to the other treatments: 1 hr
[5] = concentrations insufficient to inhibit growth

Compound | leafCurling (Dev.) [3] | leafTwisting (Dev.) [3] | leafWidth (Dev.) [3] | matureLeafAnthocyanins (Dev.) [3] | matureLeafChlorosis (Dev.) [3] | matureLeafNecrosis (Dev.) [3] | newLeafAnthocyanins (Dev.) [3] | newLeafChlorosis (Dev.) [3] | newLeafNecrosis (Dev.) [3] | pointedLeaves (Dev.) [3] | tMic (Dev.) [3] | Symptom Class [3] | No. of Lethal Genes Altered (Arabidopsis thaliana [4]) | other results
O=[N+]([O-])O [Nitrate] |  |  |  |  |  |  |  |  |  |  |  |  |  | Nitrate Regulation of Glutamate synthetase gene (Arabidopsis plants): ↑; Nitrate Regulation of Glutamine synthetase (2) genes (Arabidopsis plants): ↑; Nitrate Regulation of MADs Box (2) genes (Arabidopsis plants): ↓; Nitrate Regulation of MYB transcription factor gene (Arabidopsis plants): ↑; Nitrate Regulation of Malate Dehydrogenase gene (Arabidopsis plants): ↑; Nitrate Regulation of Nitrate transporter gene (Arabidopsis plants): ↑; Nitrate Regulation of Phosphate transporter gene (Arabidopsis plants): ↑; Nitrate Regulation of Transaldolase gene (Arabidopsis plants): ↑; Nitrate Regulation of Transketolase gene (Arabidopsis plants): ↑
CC(=O)N1CCN(c2ccc(OCC3COC(Cn4ccnc4)(c4ccc(Cl)cc4Cl)O3)cc2)CC1 (stereo not shown) [Ketoconazole] |  |  |  |  |  |  |  |  |  |  |  |  |  | # Reactions (Number Of Pathways Having at Least One Enzyme and One Compound Perturbed) [1]: 24
CP(=O)(O)CCC(N)C(=O)O (stereo not shown) [Glufosinate] | 2 | 1 | −2 | 0 | 3 | 0 | 0 | 3 | 0 | 1 | 1 | 3 | 10 | stress-related metabolites observed (Arabidopsis thaliana [2]; in vivo): Only a few, if any; nitrogen sources M. grisea is able to utilize in the presence of the compound (Magnaporthe grisea): only able to utilize glutamine and glutamate; Regulated Genes Following Herbicide Treatment: Down (Arabidopsis thaliana [4]; in vivo): 54
O=C(O)c1ccccc1C(=O)Nc1cccc2ccccc12 [Naptalam] |  |  |  |  |  |  |  |  |  |  |  |  | 3 | gene expression perturbations compared to the other treatments (Arabidopsis thaliana [4]): fewest gene expression perturbations; Regulated Genes Following Herbicide Treatment: Down (Arabidopsis thaliana [4]; in vivo): 47; Regulated Genes Following Herbicide Treatment: Up (Arabidopsis thaliana [4]; in vivo): 50
C[n+]1ccc(-c2cc[n+](C)cc2)cc1 [Paraquat] |  |  |  |  |  |  |  |  |  |  |  | 7 |  | 
c1cc[n+]2c(c1)-c1cccc[n+]1CC2 [Diquat] | 2 | 0 | −2 | 0 | 1 | 4 | 0 | 1 | 4 | 1 | 2 | 7 |  | 
O=C(O)COc1ccc(Cl)cc1Cl [2,4-D] | 1 | 2 | −1 | 1 | 2 | 0 | 0 | 1 | 0 | 0 | 2 | 5 |  | 
CNc1cnn(-c2cccc(C(F)(F)F)c2)c(=O)c1Cl [Norfluazon, Norflurazon] |  |  |  |  |  |  |  |  |  |  |  |  |  | stress-related metabolites observed (Arabidopsis thaliana [2]; MOA1, 20 min and 1 hr): Only a few, if any
COc1nc(C)nc(NC(=O)NS(=O)(=O)c2ccccc2Cl)n1 [Chlorsulfuron] |  |  |  |  |  |  |  |  |  |  |  |  | 8 | 
CS(=O)(=O)c1cc(C(F)(F)F)ccc1C(=O)c1cnoc1C1CC1 [Isoxaflutole] |  |  |  |  |  |  |  |  |  |  |  |  | 15 | tyrosine and phenylalanine relative to the control (Arabidopsis thaliana [2]; Arabidopsis, after one hour): up-regulated; also recorded: began to accumulate; Alpha-tocopherol levels relative to the control (Arabidopsis thaliana [2]; Arabidopsis, early time points): not significantly changed; M. grisea growth in minimal media (Magnaporthe grisea; [5]): unaffected; M. grisea growth in minimal plus tyrosine media (Magnaporthe grisea; [5]): inhibited
O=C(O)CNCP(=O)(O)O [Glyphosate] | 0 | 0 | 0 | 3 | 1 | 3 | 1 | 2 | 0 | 1 | 2 | 4 |  | tyrosine (metabolite downstream from the SOA) relative to the control (Arabidopsis thaliana [2]; in vivo): decreased; growth results of Unknown 4 and glyphosate compared (Magnaporthe grisea): nearly identical; Growth inhibition of M. grisea on inclusion of aromatic amino acids to the media (Magnaporthe grisea; 1.0 mg/ml): remediated; Growth of M. grisea with ammonium or glutamine as nitrogen source (Magnaporthe grisea; Tier 4): Little growth defect
COC(=O)NS(=O)(=O)c1ccc(N)cc1 [Asulam] |  |  |  |  |  |  |  |  |  |  |  |  | 5 | gene expression perturbations compared to the other treatments (Arabidopsis thaliana [4]): fewest gene expression perturbations
CC(C)C1(C)N=C(c2ncccc2C(=O)O)NC1=O (stereo not shown) [Imazapyr] |  |  |  |  |  |  |  |  |  |  |  |  |  | stress-related metabolites observed (Arabidopsis thaliana [2]; MOA1, 20 min and 1 hr): Only a few, if any
OC(Cn1cncn1)(Cn1cncn1)c1ccc(F)cc1F [Fluconazole] |  |  |  |  |  |  |  |  |  |  |  |  |  | # Reactions (Number Of Pathways Having at Least One Enzyme and One Compound Perturbed) [1]: 15
CN(C)C(=O)Nc1ccc(Cl)c(Cl)c1 [Diuron] | 1 | 0 | −2 | 0 | 2 | 4 | 0 | 2 | 4 | 1 | 1 | 7 |  | 
